The experiment addresses T1, GltTk (Thermococcus kodakarensis, UniProt Q5JID0).
T1 construct: gene TK0986; C-terminally His8-tagged, pBAD24-derived plasmid, E. coli MC1061; purified in decyl maltoside; trimer
Briefly: isothermal titration calorimetry; crystal structure […] Å. It is filed as binding. The note with it: eight Na+ concentrations (apparent affinity strongly Na+-dependent); 10 mM Hepes KOH pH 8, 100 mM KCl, 0.15% DM, 25 °C; transport substrate site.

The source of these data is PMC5110648, “Coupled binding mechanism of three sodium ions and aspartate in the glutamate transporter homologue GltTk” (Nature Communications, 2016).

T1 sequence (Q5JID0 entry or part of it): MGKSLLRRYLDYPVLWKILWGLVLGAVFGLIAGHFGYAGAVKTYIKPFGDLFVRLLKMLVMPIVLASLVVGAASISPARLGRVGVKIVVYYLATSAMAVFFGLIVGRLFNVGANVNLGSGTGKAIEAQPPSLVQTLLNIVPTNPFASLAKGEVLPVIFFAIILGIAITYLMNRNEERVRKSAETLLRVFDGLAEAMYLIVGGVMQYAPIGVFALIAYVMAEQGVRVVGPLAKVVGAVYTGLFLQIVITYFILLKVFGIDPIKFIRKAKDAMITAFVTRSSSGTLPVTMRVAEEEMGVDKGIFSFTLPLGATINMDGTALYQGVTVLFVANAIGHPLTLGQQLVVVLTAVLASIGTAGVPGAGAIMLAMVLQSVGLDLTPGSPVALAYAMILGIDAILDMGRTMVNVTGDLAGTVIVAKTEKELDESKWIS

With `N[C@@H](CC(=O)O)C(=O)O` [L-aspartate], the Apparent affinity result is given as “Apparent affinity of GltTk for aspartate as a function of Na^+ concentration”.
